Data as given in patent publication US8178506B2, “Oligomeric compounds and compositions for use in modulation of small non-coding RNAs” (Regulus Therapeutics Inc., priority 2003, dated 2012).
In the oligonucleotide strings, read from the 5' end, every base follows the letter of its sugar. An asterisk marks phosphorothioate; unmarked linkages are phosphodiester. Other units and linkages are bracketed, terminal groups are in braces. A string of capitals states the bases alone. e = 2'-O-(2-methoxyethyl) (MOE); [5mC] = 5-methylcytosine; d = 2'-deoxy (DNA)

How the values were obtained:
follistatin = assay: Follistatin mRNA expression in HepG2 cells; assay type: cell-based, human
PEPCK-c = PEPCK-c mRNA expression in HepG2 cells; assay type: cell-based, human
[1] = test system: BJ, B16-F10, T47D, T47Dp53 and HeLa cells; assay: Cell cycle assay (propidium iodide flow cytometry), cell line panel; assay type: cell-based; conditions: 150 nM oligomeric compound, 4.5 μg/ml LIPOFECTIN, after 72 hours, propidium iodide flow cytometry
[2] = Experiment 1, basal (no insulin), HepG2, 100 nM oligomeric compound
[3] = Experiment 2, 1 nM insulin treated, HepG2, 100 nM oligomeric compound
[4] = Experiment 2, insulin treated: HepG2 cells transfected with oligomeric compound, 1 nM insulin for four hours, UTC + 1 nM insulin = 100
[5] = HepG2 cells, Experiment 1, basal (no insulin), four hours, UTC = 100
[6] = Experiment 3, basal (no insulin), HepG2 cells, 48 hours post-transfection
[7] = Experiment 4, insulin-sensitization: HepG2 cells treated with 1 nM insulin for four hours, 48 h post-transfection, mRNA by real-time PCR

327889 (antisense eG*eT*eG*eG*eT*eA*eA*eT*e[5mC]*e[5mC]*e[5mC]*eT*eG*eG*e[5mC]*eA*eA*eT*eG*eT*eG*eA*eT) [compound 327889]
Follistatin (% UTC) (follistatin; [2]): 56 % UTC | Follistatin (% UTC) (follistatin; [3]): 72 % UTC | PEPCK-c (% UTC) (PEPCK-c; [2]): 137 % UTC | PEPCK-c (% UTC) (PEPCK-c; [3]): 202 % UTC | G1 (percentage of cells in phase of the cell cycle) [1]: 53.1% | G2/M (percentage of cells in phase of the cell cycle) [1]: 14.4% | S (percentage of cells in phase of the cell cycle) [1]: 32.5% | SubG1 (percentage of cells in phase of the cell cycle) [1]: 8.2% | aneuploid (percentage of cells) [1]: 10.5%

327901 (antisense eT*eG*eA*eG*e[5mC]*eT*eA*e[5mC]*eA*eG*eT*eG*e[5mC]*eT*eT*e[5mC]*eA*eT*e[5mC]*eT*e[5mC]*eA) [compound 327901]
Follistatin (% UTC) (follistatin; [2]): 93 % UTC | Follistatin (% UTC) (follistatin; [3]): 135 % UTC | PEPCK-c (% UTC) (PEPCK-c; [2]): 119 % UTC | PEPCK-c (% UTC) (PEPCK-c; [3]): 117 % UTC | G1 (percentage of cells in phase of the cell cycle) [1]: 34.7% | G2/M (percentage of cells in phase of the cell cycle) [1]: 20.3% | S (percentage of cells in phase of the cell cycle) [1]: 44.9% | SubG1 (percentage of cells in phase of the cell cycle) [1]: 12% | aneuploid (percentage of cells) [1]: 13.6%

327903 (antisense eA*eA*e[5mC]*eT*eA*eT*eA*e[5mC]*eA*eA*e[5mC]*e[5mC]*eT*eA*e[5mC]*eT*eA*e[5mC]*e[5mC]*eT*e[5mC]*eA) [compound 327903]
Follistatin (% UTC) (follistatin; [2]): 60 % UTC | Follistatin (% UTC) (follistatin; [3]): 89 % UTC | PEPCK-c (% UTC) (PEPCK-c; [2]): 71 % UTC | PEPCK-c (% UTC) (PEPCK-c; [3]): 87 % UTC | G1 (percentage of cells in phase of the cell cycle) [1]: 53.7% | G2/M (percentage of cells in phase of the cell cycle) [1]: 15.4% | S (percentage of cells in phase of the cell cycle) [1]: 30.9% | SubG1 (percentage of cells in phase of the cell cycle) [1]: 11% | aneuploid (percentage of cells) [1]: 13.4%

327905 (antisense e[5mC]*eA*eG*eA*e[5mC]*eT*e[5mC]*e[5mC]*eG*eG*eT*eG*eG*eA*eA*eT*eG*eA*eA*eG*eG*eA) [compound 327905]
Follistatin (% UTC) (follistatin; [2]): 104 % UTC | Follistatin (% UTC) (follistatin; [3]): 148 % UTC | PEPCK-c (% UTC) (PEPCK-c; [2]): 129 % UTC | PEPCK-c (% UTC) (PEPCK-c; [3]): 147 % UTC | G1 (percentage of cells in phase of the cell cycle) [1]: 56.9% | G2/M (percentage of cells in phase of the cell cycle) [1]: 15% | S (percentage of cells in phase of the cell cycle) [1]: 28.1% | SubG1 (percentage of cells in phase of the cell cycle) [1]: 8.5% | aneuploid (percentage of cells) [1]: 14.7%

327911 (antisense eG*e[5mC]*eT*eA*e[5mC]*e[5mC]*eT*eG*e[5mC]*eA*e[5mC]*eT*eG*eT*eA*eA*eG*e[5mC]*eA*e[5mC]*eT*eT*eT*eT) [compound 327911]
Follistatin mRNA expression (follistatin; [4]): 71 | Follistatin mRNA (follistatin; [5]): 81 | PEPCKc mRNA expression (PEPCK-c; [4]): 78 | PEPCKc mRNA (PEPCK-c; [5]): 52 | G1 (percentage of cells in phase of the cell cycle) [1]: 49.9% | G2/M (percentage of cells in phase of the cell cycle) [1]: 20% | S (percentage of cells in phase of the cell cycle) [1]: 30.1% | SubG1 (percentage of cells in phase of the cell cycle) [1]: 10.9% | aneuploid (percentage of cells) [1]: 16.5%

327919 (antisense eG*eA*eA*eA*e[5mC]*e[5mC]*e[5mC]*eA*eG*e[5mC]*eA*eG*eA*e[5mC]*eA*eA*eT*eG*eT*eA*eG*e[5mC]*eT) [compound 327919]
Follistatin (% UTC) (follistatin; [2]): 74 % UTC | Follistatin (% UTC) (follistatin; [3]): 178 % UTC | PEPCK-c (% UTC) (PEPCK-c; [2]): 71 % UTC | PEPCK-c (% UTC) (PEPCK-c; [3]): 105 % UTC | G1 (percentage of cells in phase of the cell cycle) [1]: 54.3% | G2/M (percentage of cells in phase of the cell cycle) [1]: 15.4% | S (percentage of cells in phase of the cell cycle) [1]: 30.3% | SubG1 (percentage of cells in phase of the cell cycle) [1]: 10.8% | aneuploid (percentage of cells) [1]: 16%

327922 (antisense eT*e[5mC]*eA*eG*eT*eT*eT*eT*eG*e[5mC]*eA*eT*eG*eG*eA*eT*eT*eT*eG*e[5mC]*eA*e[5mC]*eA) [compound 327922]
Follistatin (% UTC) (follistatin; [2]): 57 % UTC | Follistatin (% UTC) (follistatin; [3]): 61 % UTC | PEPCK-c (% UTC) (PEPCK-c; [2]): 77 % UTC | PEPCK-c (% UTC) (PEPCK-c; [3]): 76 % UTC | G1 (percentage of cells in phase of the cell cycle) [1]: 50.4% | G2/M (percentage of cells in phase of the cell cycle) [1]: 18.9% | S (percentage of cells in phase of the cell cycle) [1]: 30.7% | SubG1 (percentage of cells in phase of the cell cycle) [1]: 10% | aneuploid (percentage of cells) [1]: 16.8%

327933 (antisense eA*eA*eG*eG*eG*eA*eT*eT*e[5mC]*e[5mC]*eT*eG*eG*eG*eA*eA*eA*eA*e[5mC]*eT*eG*eG*eA*e[5mC]) [compound 327933]
Follistatin (% UTC) (follistatin; [2]): 112 % UTC | Follistatin (% UTC) (follistatin; [3]): 185 % UTC | PEPCK-c (% UTC) (PEPCK-c; [2]): 118 % UTC | PEPCK-c (% UTC) (PEPCK-c; [3]): 115 % UTC | G1 (percentage of cells in phase of the cell cycle) [1]: 49.6% | G2/M (percentage of cells in phase of the cell cycle) [1]: 19.1% | S (percentage of cells in phase of the cell cycle) [1]: 31.3% | SubG1 (percentage of cells in phase of the cell cycle) [1]: 10.2% | aneuploid (percentage of cells) [1]: 15.9%

327934 (antisense eG*eG*eT*eA*e[5mC]*eA*eA*eT*e[5mC]*eA*eA*e[5mC]*eG*eG*eT*e[5mC]*eG*eA*eT*eG*eG*eT) [compound 327934]
Follistatin (% UTC) (follistatin; [2]): 140 % UTC | Follistatin (% UTC) (follistatin; [3]): 103 % UTC | PEPCK-c (% UTC) (PEPCK-c; [2]): 99 % UTC | PEPCK-c (% UTC) (PEPCK-c; [3]): 105 % UTC | G1 (percentage of cells in phase of the cell cycle) [1]: 54.4% | G2/M (percentage of cells in phase of the cell cycle) [1]: 17.4% | S (percentage of cells in phase of the cell cycle) [1]: 28.2% | SubG1 (percentage of cells in phase of the cell cycle) [1]: 6.6% | aneuploid (percentage of cells) [1]: 17%

327941 (antisense eA*eA*e[5mC]*e[5mC]*e[5mC]*eA*e[5mC]*e[5mC]*eG*eA*e[5mC]*eA*eG*e[5mC]*eA*eA*eT*eG*eA*eA*eT*eG*eT*eT) [compound 327941]
Follistatin (% UTC) (follistatin; [2]): 80 % UTC | Follistatin (% UTC) (follistatin; [3]): 68 % UTC | PEPCK-c (% UTC) (PEPCK-c; [2]): 101 % UTC | PEPCK-c (% UTC) (PEPCK-c; [3]): 98 % UTC | G1 (percentage of cells in phase of the cell cycle) [1]: 57.2% | G2/M (percentage of cells in phase of the cell cycle) [1]: 12.9% | S (percentage of cells in phase of the cell cycle) [1]: 29.9% | SubG1 (percentage of cells in phase of the cell cycle) [1]: 8.2% | aneuploid (percentage of cells) [1]: 15.8%

328691 (e[5mC]*e[5mC]*e[5mC]*e[5mC]*eA*dT*d[5mC]*dT*dT*dA*dG*d[5mC]*dA*dT*d[5mC]*eT*eA*eA*eG*eG) [compound 328691]
Follistatin (% UTC) (follistatin; [6]): 93 % UTC | Follistatin (% UTC) (follistatin; [7]): 104 % UTC | PEPCK-c (% UTC) (PEPCK-c; [6]): 108 % UTC | PEPCK-c (% UTC) (PEPCK-c; [7]): 97 % UTC | G1 (percentage of cells in phase of the cell cycle) [1]: 60.5% | G2/M (percentage of cells in phase of the cell cycle) [1]: 15.1% | S (percentage of cells in phase of the cell cycle) [1]: 24.4% | SubG1 (percentage of cells in phase of the cell cycle) [1]: 7.7% | aneuploid (percentage of cells) [1]: 16.6%
